# Reference: PubChem BioAssay (NCI)
#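 Step 1: Grow cells in 96-well plates. Step 2: Expose to compound for 48 hours at 5 concentrations. Step 3: Interpolate endpoints linearly; if unreached, use highest concentration. GI50 = concentration required for 50% inhibition of growth. Definition used: TGI = concentration required for complete inhibition of growth.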
# Key:
# Test in all cases: NCI-60 cell line screen, 48 h
# NCI-H460 lung = test system: NCI-H460 lung
# OVCAR-3 ovarian = test system: OVCAR-3 ovarian
# PC-3 prostate = test system: PC-3 prostate
# IGROV1 ovarian = test system: IGROV1 ovarian
# A549 NSCLC = test system: A549 NSCLC
# SNB-19 CNS = test system: SNB-19 CNS
# 786-0 renal = test system: 786-0 renal
# K-562 leukemia = test system: K-562 leukemia
# SN12C renal = test system: SN12C renal
# SK-MEL-2 melanoma = test system: SK-MEL-2 melanoma
# BT-549 breast = test system: BT-549 breast
# UO-31 renal = test system: UO-31 renal
# SK-MEL-28 melanoma = test system: SK-MEL-28 melanoma
# LOX IMVI melanoma = test system: LOX IMVI melanoma
# RXF 393 renal = test system: RXF 393 renal
# SK-MEL-5 melanoma = test system: SK-MEL-5 melanoma
# UACC-62 melanoma = test system: UACC-62 melanoma
# U251 CNS = test system: U251 CNS
# HCT-15 colon = test system: HCT-15 colon
# SF-539 CNS = test system: SF-539 CNS
# MDA-MB-231 breast = test system: MDA-MB-231 breast
# SF-268 CNS = test system: SF-268 CNS
# HCC-2998 colon = test system: HCC-2998 colon
# SW-620 colon = test system: SW-620 colon
# HOP-62 NSCLC = test system: HOP-62 NSCLC
# A498 renal = test system: A498 renal
# SNB-75 CNS = test system: SNB-75 CNS
structure (smiles),measurement,setting,value
Fc1cc(-c2csc3n[nH]c(=S)n23)c(Cl)cc1Cl,GI50,NCI-H460 lung,35.4 µM
same,TGI,NCI-H460 lung,> 100 µM
same,GI50,OVCAR-3 ovarian,34.9 µM
same,TGI,OVCAR-3 ovarian,> 100 µM
same,GI50,PC-3 prostate,31.4 µM
same,TGI,PC-3 prostate,> 100 µM
same,GI50,IGROV1 ovarian,58.9 µM
same,TGI,IGROV1 ovarian,> 100 µM
same,GI50,A549 NSCLC,42 µM
same,TGI,A549 NSCLC,> 100 µM
same,GI50,SNB-19 CNS,47 µM
same,TGI,SNB-19 CNS,> 100 µM
same,GI50,786-0 renal,22.2 µM
same,TGI,786-0 renal,42.7 µM
same,GI50,K-562 leukemia,32.2 µM
same,TGI,K-562 leukemia,> 100 µM
same,GI50,SN12C renal,22.4 µM
same,TGI,SN12C renal,58.8 µM
same,GI50,SK-MEL-2 melanoma,26.7 µM
same,TGI,SK-MEL-2 melanoma,76.5 µM
same,GI50,BT-549 breast,36.4 µM
same,TGI,BT-549 breast,> 100 µM
same,GI50,UO-31 renal,43 µM
same,TGI,UO-31 renal,> 100 µM
same,GI50,SK-MEL-28 melanoma,48.2 µM
same,TGI,SK-MEL-28 melanoma,> 100 µM
same,GI50,LOX IMVI melanoma,37.2 µM
same,TGI,LOX IMVI melanoma,> 100 µM
same,GI50,RXF 393 renal,21.6 µM
same,TGI,RXF 393 renal,63 µM
same,GI50,SK-MEL-5 melanoma,55.7 µM
same,TGI,SK-MEL-5 melanoma,> 100 µM
same,GI50,UACC-62 melanoma,18.6 µM
same,TGI,UACC-62 melanoma,48.4 µM
same,GI50,U251 CNS,17.1 µM
same,TGI,U251 CNS,35.4 µM
same,GI50,HCT-15 colon,32.8 µM
same,TGI,HCT-15 colon,> 100 µM
same,GI50,SF-539 CNS,24.7 µM
same,TGI,SF-539 CNS,41 µM
same,GI50,MDA-MB-231 breast,14.5 µM
same,TGI,MDA-MB-231 breast,40.1 µM
same,GI50,SF-268 CNS,35.5 µM
same,TGI,SF-268 CNS,> 100 µM
same,GI50,HCC-2998 colon,25.8 µM
same,TGI,HCC-2998 colon,70.1 µM
same,GI50,SW-620 colon,> 100 µM
same,TGI,SW-620 colon,> 100 µM
same,GI50,HOP-62 NSCLC,20.1 µM
same,TGI,HOP-62 NSCLC,38.8 µM
same,GI50,A498 renal,19 µM
same,TGI,A498 renal,47.1 µM
same,GI50,SNB-75 CNS,22.1 µM
same,TGI,SNB-75 CNS,50 µM
